Patent US20110312877A1, “ENGINEERED TUNABLE NANOPARTICLES FOR DELIVERY OF THERAPEUTICS, DIAGNOSTICS, AND EXPERIMENTAL COMPOUNDS AND RELATED COMPOSITIONS FOR THERAPEUTIC USE” (APARNA BIOSCEIENCES, priority 2008, published 2011)
Where no end group is shown, it is not given here.

System: HRP-labeled IgG
Test: PEI-PEG-Peptide antibody binding and free peptide competition (ELISA)
Details: peptide 0 added after antibody, lowering competition (FIG. 1C)
Description: PPP0 (Pei-PEG-Peptide0) was diluted into the coating buffer (1×TBS, pH7.2) (final concentration: 30 μg/ml) and immediately coated 96-well microplate with 100 µl per well of the diluted PPP0 solution. The plates were sealed and incubated overnight at room temperature.
Wells were aspirated and washed with 300 µl of washing buffer (1×TBS containing 0.1% Tween 20, pH 7.4). The procedure was repeated two more times for a total of three washes
In the next step plates were blocked by adding 300 µl 1% BSA in TBS and incubating for two hours.
[…] Next, 50 µl of HRP-labeled IgG (˜3 ug/ml in binding buffer) was added to each of the wells. The plate was shaken on a horizontal microplate shaker at 500±50 rpm for 10 rain and then incubate at 37° C. for 2 hours. After incubation, wells were washed 5 times with washing buffer to remove the competitors and HRP-IgG.
150 µl per well of freshly prepared substrate solution was added and incubated for 25-30 min at room temperature. The reaction was stopped by adding 70 µl of 2NH2SO4 into each well. Plate was gently tapped to ensure a thorough mixing. Optical density of each well was measured immediately, using a microplate reader set to 450 nm. Data was analyzed GraphPad Prism software.

PPP: Fc binding peptide (HWRGWVC)-PEG-PEI conjugate made with SCM-PEG-Mal (3400) and PEI 2K (also: conjugated to PEG(3400)-PEI 2K via SCM-PEG-Mal, site not given here)
off-rate for antibody dissociation from PPP: long
